Key:
eastern black nightshade = assay: Test C pre-/postemergence test; type: in vivo, Solanum ptycanthum
Procedure, shortened: (§1)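 Compounds in a non-phytotoxic solvent with surfactant applied preemergence to seeded pots and, at the same time, postemergence to plants 2–18 cm tall (1- to 4-leaf stage). Paddy tests: pots flooded to 3 cm, compound applied into the water, depth held throughout.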

Goosegrass = assay: Test C pre-/postemergence test; type: in vivo, Eleusin indica
Procedure, shortened: as §1

woolly cupgrass = assay: Test C pre-/postemergence test; type: in vivo, Eriochloa villosa
Procedure, shortened: as §1

wheat = assay: Test C pre-/postemergence test; type: in vivo, Triticum aestivum
Procedure, shortened: as §1

blackgrass = assay: Test C pre-/postemergence test; type: in vivo, Alopecurus myosuroides
Procedure, shortened: as §1

corn = assay: Test C pre-/postemergence test; type: in vivo, Zea mays
Procedure, shortened: as §1

common ragweed = assay: Test C pre-/postemergence test; type: in vivo, Ambrosia elation
Procedure, shortened: as §1

duck salad = assay: Test C flooded paddy test; type: in vivo, Heteranthera limosa; conditions: Flood
Procedure, shortened: (§2)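 Ratings were visual and made relative to untreated controls after 13 to 15 greenhouse days.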

umbrella sedge = assay: Test C flooded paddy test; type: in vivo, Cyperus difformis; conditions: Flood
Procedure, shortened: as §2

[1] = tested on: common (oilseed) sunflower; assay: Test C pre-/postemergence test; type: in vivo, Helianthus annuus
Procedure, shortened: as §1

Italian ryegrass = assay: Test C pre-/postemergence test; type: in vivo, Lolium multiflorum
Procedure, shortened: as §1

yellow nutsedge = assay: Test C pre-/postemergence test; type: in vivo, Cyperus esculentus
Procedure, shortened: as §1

redroot pigweed = assay: Test A pre-/postemergence greenhouse test; type: in vivo, Amaranthus retroflexus; conditions: for Plant response rating, Pigweed: 0 to 100 scale where 0 is no effect and 100 is complete control; for Pigweed plant response rating: 0 to 100 scale
Procedure, shortened: (§3)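 Visual injury ratings against untreated controls, taken roughly ten days after treatment in greenhouse. Plants were sprayed postemergence at one- to two-leaf stage (2–10 cm tall); at the same time, seeded loam/sand soil received a directed preemergence spray. Formulation: non-phytotoxic solvent mixture with surfactant.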

crabgrass = assay: Test A pre-/postemergence greenhouse test; type: in vivo, Digitaria sanguinalis; conditions: for Plant response rating, Crabgrass, Large: 0 to 100 scale where 0 is no effect and 100 is complete control; for Crabgrass, Large plant response rating: 0 to 100 scale
Procedure, shortened: as §3

wild oat = assay: Test C pre-/postemergence test; type: in vivo, Avena fatua
Procedure, shortened: as §1

green foxtail = assay: Test C pre-/postemergence test; type: in vivo, Setaria viridis
Procedure, shortened: as §1

morningglory = assay: Test A pre-/postemergence greenhouse test; type: in vivo, Ipomoea spp.; conditions: for Plant response rating, Morningglory: 0 to 100 scale where 0 is no effect and 100 is complete control; for Morningglory plant response rating: 0 to 100 scale
Procedure, shortened: as §3

[2] = 62 g ai/ha, Preemergence, scale 0 to 100
[3] = 125 g ai/ha, preemergence, scale 0 (no effect) to 100 (complete control)
[4] = Preemergence, 31 g ai/ha, scale 0 to 100 (0 no effect, 100 complete control)
[5] = preemergence, 250 g ai/ha, scale 0 (no effect) to 100 (complete control)
[6] = 62 g ai/ha, scale 0 to 100 (0 no effect, 100 complete control)
[7] = 250 g ai/ha, scale 0 to 100, 0 no effect, 100 complete control, 13 to 15 days
[8] = Postemergence, 500 g ai/ha, 0 is no effect, 100 is complete control
[9] = Preemergence, 125 g ai/ha, 0 no effect, 100 complete control

C#CCOc1c(C[S+]([O-])c2cccc[n+]2[O-])c(C(F)(F)F)nn1C (stereo not drawn) [Compound 76]
Nightshade plant response rating (eastern black nightshade; [2]): 85
Nightshade plant response rating (eastern black nightshade; [3]): 90
Plant response rating, Nightshade (eastern black nightshade; [4]): 85
Nightshade plant response rating (eastern black nightshade; [5]): 100
Goosegrass plant response rating (Goosegrass; [2]): 95
Goosegrass plant response rating (Goosegrass; [3]): 98
Plant response rating, Goosegrass (Goosegrass; [4]): 80
Goosegrass plant response rating (Goosegrass; [5]): 100
Cupgrass, Woolly plant response rating (woolly cupgrass; [2]): 70
Cupgrass, Woolly plant response rating (woolly cupgrass; [3]): 95
Plant response rating, Cupgrass, Woolly (woolly cupgrass; [4]): 0
Cupgrass, Woolly plant response rating (woolly cupgrass; [5]): 100
Wheat plant response rating (wheat; [2]): 60
Wheat plant response rating (wheat; [3]): 98
Plant response rating, Wheat (wheat; [4]): 0
Wheat plant response rating (wheat; [5]): 100
Blackgrass plant response rating (blackgrass; [2]): 100
Blackgrass plant response rating (blackgrass; [3]): 100
Plant response rating, Blackgrass (blackgrass; [4]): 0
Blackgrass plant response rating (blackgrass; [5]): 100
Corn plant response rating (corn; [2]): 80
Corn plant response rating (corn; [3]): 100
Plant response rating, Corn (corn; [4]): 0
Corn plant response rating (corn; [5]): 100
Ragweed plant response rating (common ragweed; [2]): 20
Ragweed plant response rating (common ragweed; [3]): 100
Ragweed plant response rating (common ragweed; [5]): 100
Plant response rating, Ducksalad (duck salad; [6]): 0
Plant response rating, Ducksalad (duck salad; [7]): 100
Plant response rating, Sedge, Umbrella (umbrella sedge; [6]): 0
Plant response rating, Sedge, Umbrella (umbrella sedge; [7]): 100
Sunflower plant response rating [1, 2]: 35
Sunflower plant response rating [1, 3]: 50
Plant response rating, Sunflower [1, 4]: 0
Sunflower plant response rating [1, 5]: 70
Ryegrass, Italian plant response rating (Italian ryegrass; [2]): 50
Ryegrass, Italian plant response rating (Italian ryegrass; [3]): 70
Plant response rating, Ryegrass, Italian (Italian ryegrass; [4]): 0
Ryegrass, Italian plant response rating (Italian ryegrass; [5]): 100
Nutsedge, Yellow plant response rating (yellow nutsedge; [2]): 50
Nutsedge, Yellow plant response rating (yellow nutsedge; [3]): 80
Plant response rating, Nutsedge, Yellow (yellow nutsedge; [4]): 0
Nutsedge, Yellow plant response rating (yellow nutsedge; [5]): 95
Plant response rating, Pigweed (redroot pigweed; Postemergence, 125 g ai/ha): 50
Pigweed plant response rating (redroot pigweed; [8]): 80
Pigweed plant response rating (redroot pigweed; [9]): 70
Plant response rating, Pigweed (redroot pigweed; Preemergence, 500 g ai/ha): 100
Plant response rating, Crabgrass, Large (crabgrass; Postemergence, 125 g ai/ha): 50
Crabgrass, Large plant response rating (crabgrass; [8]): 90
Crabgrass, Large plant response rating (crabgrass; [9]): 80
Plant response rating, Crabgrass, Large (crabgrass; Preemergence, 500 g ai/ha): 90
Oat, Wild plant response rating (wild oat; [2]): 50
Oat, Wild plant response rating (wild oat; [3]): 60
Plant response rating, Oat, Wild (wild oat; [4]): 0
Oat, Wild plant response rating (wild oat; [5]): 95
Foxtail, Green plant response rating (green foxtail; [2]): 100
Foxtail, Green plant response rating (green foxtail; [3]): 100
Plant response rating, Foxtail, Green (green foxtail; [4]): 70
Foxtail, Green plant response rating (green foxtail; [5]): 100
Plant response rating, Morningglory (morningglory; Postemergence, 125 g ai/ha): 70
Morningglory plant response rating (morningglory; [8]): 90
Morningglory plant response rating (morningglory; [9]): 50
Plant response rating, Morningglory (morningglory; Preemergence, 500 g ai/ha): 90

Source: US20100298141A1, “SUBSTITUTED PYRIDINE N-OXIDE HERBICIDES” (E. I. DU PONT DE NEMOURS AND COMPANY, priority 2007, published 2010)
